Measured values: patent US10933051B2, “Carbapenem compounds and compositions for the treatment of bacterial infections” (FOB Synthesis, Inc., priority 2017, dated 2021)

Assays:
Assay type in all cases: cell-based
Set-up in all cases: unit not given here
[1] = test system: E. coli ATCC10536; assay: MIC by CLSI agar/broth dilution, Test Example 1; conditions: Table 2
Protocol: (§1) The MIC (minimum inhibitory concentration) was determined by the CLSI (Clinical and Laboratory Standards Institute) methods. The agar dilution method for determining antimicrobial susceptibility was carried out using Mueller Hinton-II agar and the amount of inoculation was 10^4 CFU/spot. Broth dilution tests were performed using Mueller Hinton-II broth. All assays were run with the indicated control strains, available from the ATCC (American Type Culture Collection, Rockville, Md.).

[2] = test system: A. baumannii 4010; assay: MIC by CLSI agar/broth dilution, Test Example 1; conditions: Table 2; strain produces OXA-51
Protocol: as §1

[3] = test system: K. pneumoniae ATCC10031; assay: MIC by CLSI agar/broth dilution, Test Example 1; conditions: Table 2
Protocol: as §1

[4] = test system: P. aeruginosa ATCC27853; assay: MIC by CLSI agar/broth dilution, Test Example 1; conditions: Table 2
Protocol: as §1

[5] = test system: A. baumannii KABA 01-33; assay: MIC by CLSI agar/broth dilution, Test Example 1; conditions: Table 2; strain produces OXA-2, VIM-2
Protocol: as §1

[6] = test system: A. baumannii FSAb-039; assay: Antimicrobial Susceptibility Test (CLSI), Test Example 2; conditions: Table 4; strain produces OXA-51
Protocol: (§2) Antimicrobial Susceptibility Test was performed by the CLSI (Clinical and Laboratory Standards Institute) methods. The agar dilution method for determining antimicrobial susceptibility was carried out using Mueller Hinton-II agar and the amount of inoculation was 10^4CFU/spot. Broth dilution tests were performed using the Mueller Hinton-II broth. All assays were run with the indicated control strains, available from the ATCC (American Type Culture Collection, Rockville, Md.).

[7] = test system: A. baumannii FSAb-056; assay: as above; conditions: Table 4; strain produces OXA-23, OXA-51
Protocol: as §2

[8] = test system: A. baumannii FSAb-065; assay: as above; conditions: Table 4; strain produces OXA-2, VIM-2
Protocol: as §2

[9] = test system: A. baumannii FSAb-029; assay: as above; conditions: Table 4; strain produces OXA-2, IMP-1
Protocol: as §2

[10] = test system: E. coli FSEco-054; assay: as above; conditions: Table 4; strain produces ESBL
Protocol: as §2

[11] = test system: P. aeruginosa FSPa-121; assay: as above; conditions: Table 4; strain produces OXA-17
Protocol: as §2

[12] = test system: K. pneumoniae ATCC BAA-1904; assay: as above; conditions: Table 4; strain produces KPC-3
Protocol: as §2

[13] = test system: P. aeruginosa FSPa-141; assay: Antimicrobial Susceptibility Test (CLSI), Test Example 3; conditions: Table 6; strain produces VIM-2
Protocol: as §2

[14] = test system: A. baumannii FSAb-039; assay: as above; conditions: Table 6; strain produces OXA-51
Protocol: as §2

[15] = test system: K. pneumoniae BAA-1904; assay: as above; conditions: Table 6; strain produces KPC-3
Protocol: as §2

[16] = test system: A. baumannii FSAb-056; assay: as above; conditions: Table 6; strain produces OXA-23, 51
Protocol: as §2

[17] = test system: P. aeruginosa FSPa-102; assay: as above; conditions: Table 6; strain produces IMP-1
Protocol: as §2

[18] = test system: A. baumannii FSAb-029; assay: as above; conditions: Table 6; strain produces OXA-2, IMP-1
Protocol: as §2

[19] = test system: E. coli FSEco-054; assay: as above; conditions: Table 6; strain produces ESBL
Protocol: as §2

[20] = test system: A. baumannii FSAb-141; assay: as above; conditions: Table 6; strain produces PER-1, OXA-23, 51, 66
Protocol: as §2

SMILES | MIC (minimum inhibitory concentration), E. coil ATCC10536 [1] | MIC (minimum inhibitory concentration), A. baumannii 4010 [2] | MIC (minimum inhibitory concentration), K. pneumoniae ATCC10031 [3] | MIC (minimum inhibitory concentration), P. aeruginosa ATCC27853 [4] | MIC (minimum inhibitory concentration), A. baumannii KABA 01-33 [5] | antimicrobial susceptibility, A. baumannii FSAb-039 [6] | antimicrobial susceptibility, A. baumannii FSAb-056 [7] | antimicrobial susceptibility, A. baumannii FSAb-065 [8] | antimicrobial susceptibility, A. baumannii FSAb-029 [9] | antimicrobial susceptibility, E. coil FSEco-054 [10] | antimicrobial susceptibility, P. aeruginosa FSPa-121 [11] | antimicrobial susceptibility, K. pneumoniae BAA-1904 [12] | antimicrobial susceptibility, Pa FSPa-141 [13] | antimicrobial susceptibility, Ab FSAb-039 [14] | antimicrobial susceptibility, Kp BAA-1904 [15] | antimicrobial susceptibility, Ab FSAb-056 [16] | antimicrobial susceptibility, Pa FSPa-102 [17] | antimicrobial susceptibility, Ab FSAb-029 [18] | antimicrobial susceptibility, Ec FSEco-054 [19] | antimicrobial susceptibility, Ab FSAb-141 [20]
C[C@@H](O)[C@H]1C(=O)N2C(C(=O)O)=C(CN(C)CCNC(=O)c3cc(O)c(O)c(Cl)c3)[C@H](C)[C@H]12 [Compound 6] | 0.5 | 4 | 0.063 | 8 | 1 | 4 | 2 | 2 | 2 | 1 | 2 | 32 | – | – | – | – | – | – | – | –
C[C@@H](O)[C@H]1C(=O)N2C(C(=O)O)=C(CN(C)CCNC(=O)c3cc(=O)c(O)cn3O)[C@H](C)[C@H]12 [Compound 25] | 0.5 | 16 | 0.25 | 32 | 8 | – | – | – | – | – | – | – | – | – | – | – | – | – | – | –
C[C@@H](O)[C@H]1C(=O)N2C(C(=O)O)=C(CN(C)CCNC(=O)CCc3ccc(O)c(O)c3Cl)[C@H](C)[C@H]12 [Compound 23] | 8 | >32 | 2 | >32 | 16 | – | – | – | – | – | – | – | – | – | – | – | – | – | – | –
C[C@@H](O)[C@H]1C(=O)N2C(C(=O)O)=C(CN(C)CC(=O)NCCNC(=O)c3ccc(O)c(O)c3Cl)[C@H](C)[C@H]12 [Compound 19] | 0.5 | 4 | 0.063 | 4 | 1 | 8 | 8 | 8 | 8 | 8 | 4 | 8 | – | – | – | – | – | – | – | –
C[C@@H](O)[C@H]1C(=O)N2C(C(=O)O)=C(CN(C)CC(=O)NCCc3ccc(O)c(O)c3)[C@H](C)[C@H]12 [Compound 22] | 2 | >32 | 0.5 | >32 | 32 | – | – | – | – | – | – | – | – | – | – | – | – | – | – | –
C[C@@H](O)[C@H]1C(=O)N2C(C(=O)O)=C(CN(C)CC(=O)NCCNC(=O)c3ccc(O)c(O)c3)[C@H](C)[C@H]12 [Compound 20] | 0.5 | 16 | 0.25 | 16 | 4 | – | – | – | – | – | – | – | – | – | – | – | – | – | – | –
C[C@@H](O)[C@H]1C(=O)N2C(C(=O)O)=C(CN(C)CCNC(=O)c3ccc(O)c(O)c3Cl)[C@H](C)[C@H]12 [Compound 1] | 0.5 | 2 | 0.063 | 4 | 1 | 2 | 2 | 1 | 1 | 1 | 2 | 8 | – | – | – | – | – | – | – | –
C[C@@H](O)[C@H]1C(=O)N2C(C(=O)O)=C(CN(C)CCNC(=O)c3ccc(O)c(O)c3)[C@H](C)[C@H]12 [Compound 8] | 1 | 8 | 0.5 | >32 | 4 | – | – | – | – | – | – | – | – | – | – | – | – | – | – | –
C[C@@H](O)[C@H]1C(=O)N2C(C(=O)O)=C(CN(C)CC(=O)NCc3cc(=O)c(O)co3)[C@H](C)[C@H]12 [Compound 27] | 0.063 | 8 | 0.063 | 16 | 16 | – | – | – | – | – | – | – | – | – | – | – | – | – | – | –
COc1ccc(C(=O)NCCN(C)CC2=C(C(=O)O)N3C(=O)[C@H]([C@@H](C)O)[C@H]3[C@H]2C)c(Cl)c1OC [Compound 15] | 32 | >32 | 1 | >32 | >32 | – | – | – | – | – | – | – | – | – | – | – | – | – | – | –
C[C@@H](O)[C@H]1C(=O)N2C(C(=O)O)=C(CN(C)CC(=O)NCc3cc(=O)c(O)cn3O)[C@H](C)[C@H]12 [Compound 26] | 0.5 | 8 | 0.13 | 8 | 2 | 16 | 4 | 4 | 16 | 4 | 4 | 32 | – | – | – | – | – | – | – | –
C[C@@H](O)[C@H]1C(=O)N2C(C(=O)O)=C(CN(CCCCNC(=O)c3cccc(O)c3O)CCCNC(=O)c3cccc(O)c3O)[C@H](C)[C@H]12 [Compound 113] | – | – | – | – | – | – | – | – | – | – | – | – | >32 | >32 | >32 | >32 | >32 | >32 | >32 | >32
COc1ccc(C(=O)NCCCN(CCCNC(=O)c2ccc(O)c(O)c2F)CC2=C(C(=O)O)N3C(=O)[C@H]([C@@H](C)O)[C@H]3[C@H]2C)c(F)c1OC [Compound 119] | – | – | – | – | – | – | – | – | – | – | – | – | >32 | 8 | >32 | 8 | >32 | 4 | 16 | 8
C[C@@H](O)[C@H]1C(=O)N2C(C(=O)O)=C(CN(C)CCNC(=O)c3cc(O)c(O)cc3Cl)[C@H](C)[C@H]12 [Compound 5] | 1 | 8 | 0.13 | 16 | 2 | 8 | 8 | 8 | 8 | 4 | 8 | 32 | – | – | – | – | – | – | – | –
